Source: patent publication US12577216B2, “Triazine benzoate compound and application thereof” (SHENYANG SINOCHEM AGROCHEMICALS R&D CO., LTD., priority 2020, dated 2026)

Key:
Type in all cases: in vivo
green bristlegrass = assay: Determination of herbicidal activity, post-emergence stem and leaf spray, green bristlegrass; details: for Herbicidal activity for Green Bristlegrass, control effect %: Table 5 parallel comparison
Procedure: (§1) Seeds of broadleaf weeds (zinnia and piemarker) or grassy weeds (green bristlegrass and barnyard grass) were respectively sown in a paper cup having a diameter of 7 cm and containing nutrient soil; after sowing, the seeds were covered with 1 cm of soil; the soil was pressed and watered, and then the seeds were cultivated in a greenhouse according to a conventional method; and stems and leaves were sprayed after 2-3 leaf stage of the weeds.
(§2) After the original medicinal acetone was dissolved, the test requires to use 1‰ of Tween 80 to stand in running water to prepare the solution to be tested with a required concentration. According to the design dose of the test, spray treatment was carried out on a track-type crop sprayer (designed and produced by British Engineer Research Ltd.) (spray pressure is 1.95 kg/cm^2, spray volume is 500 L/hm^2 and track speed is 1.48 km/h). The test was repeated for three times. The test material was treated and then placed in an operation hall. The medicinal liquid was naturally dried in the shade, and then was placed in a greenhouse and managed according to the conventional method. The response of the weeds to the drug was observed and recorded. After treatment, the control effects of the test drug on the weeds were visually inspected regularly, expressed by 0-100%. “0” represents no control effect and “100%” represents complete killing.

piemarker = assay: Determination of herbicidal activity, post-emergence stem and leaf spray, piemarker; details: for control effects on piemarker: 150 g a.i./hm^2, after emergence, visual 0-100%; for Herbicidal activity for Piemarker, control effect %: Table 4 parallel comparison
Procedure: as §1, §2

zinnia = assay: Determination of herbicidal activity, post-emergence stem and leaf spray, zinnia; details: for control effects on zinnia: 150 g a.i./hm^2, after emergence, visual 0-100%; for Herbicidal activity for Zinnia, control effect %: Table 3 parallel comparison
Procedure: as §1, §2

barnyard grass = assay: Determination of herbicidal activity, post-emergence stem and leaf spray, barnyard grass; details: for Herbicidal activity for Barnyard Grass, control effect %: Table 6 parallel comparison
Procedure: as §1, §2

[1] = 9.375 g a.i./hm^2, after emergence
[2] = 37.5 g a.i./hm^2, after emergence
[3] = 2.34 g a.i./hm^2, after emergence
[4] = Table 2, 9.375 g a.i./hm^2, after emergence
[5] = Table 2, 37.5 g a.i./hm^2, after emergence

SMILES	Herbicidal activity for Green Bristlegrass, control effect % (green bristlegrass; [1]) [%]	Herbicidal activity for Green Bristlegrass, control effect % (green bristlegrass; [2]) [%]	pest or weed control at 150 g/ha (piemarker; post-emergence, read-out: control effects on piemarker) [%]	control effects on zinnia (zinnia) [%]	Herbicidal activity for Zinnia, control effect % (zinnia; [3]) [%]	Herbicidal activity for Zinnia, control effect % (zinnia; [1]) [%]	Herbicidal activity for Barnyard Grass, control effect % (barnyard grass; [1]) [%]	Herbicidal activity for Barnyard Grass, control effect % (barnyard grass; [2]) [%]	control effects on piemarker (piemarker) [%]	Herbicidal activity for Piemarker, control effect % (piemarker; [3]) [%]	Herbicidal activity for Piemarker, control effect % (piemarker; [1]) [%]	Green Bristlegrass, control effect % (green bristlegrass; [4]) [%]	Green Bristlegrass, control effect % (green bristlegrass; [5]) [%]	Barnyard Grass, control effect % (barnyard grass; [4]) [%]	Barnyard Grass, control effect % (barnyard grass; [5]) [%]	Piemarker, control effect % (piemarker; [4]) [%]	Piemarker, control effect % (piemarker; [5]) [%]	Zinnia, control effect % (zinnia; [4]) [%]	Zinnia, control effect % (zinnia; [5]) [%]
CC(OC(=O)c1cc(-n2c(=O)n(C)c(=S)n(C)c2=O)c(F)cc1Cl)C(=O)OC/C=C/Cl (stereo not drawn) [Compound 281, (E)-2-chloro-4-fluoro-5-(3,5-dimethyl-2,6-dioxo-4-thio-1,3,5-triazine-1-yl)benzoic acid (1-(3-chloroallyloxycarbonyl))ethyl ester]	60	90	100	100	90	100													
Cn1c(=S)n(C)c(=O)n(-c2cc(C(=O)OCC(=O)OCC3CO3)c(Cl)cc2F)c1=O (stereo not drawn) [Compound 245]	70	90		100	95	100	95	98	100										
Cn1c(=S)n(C)c(=O)n(-c2cc(C(=O)OCC(=O)OCCCl)c(Cl)cc2F)c1=O [Compound 221]	80	90		100	85	100	98	100	100	85	100								
CC(OC(=O)c1cc(-n2c(=O)n(C)c(=S)n(C)c2=O)c(F)cc1Cl)C(=O)OCC1CC1 (stereo not drawn) [Compound 291]				100	85	100	90	100	100	85	100								
CCOC(=O)[C@H](C)OC(=O)c1cc(-n2c(=O)n(C)c(=S)n(C)c2=O)c(F)cc1Cl [Compound 250]	70	90		100	80	95	90	100	100	85	100	100	100	50	90	98	100	70	98
CC(OC(=O)c1cc(-n2c(=O)n(C)c(=S)n(C)c2=O)c(F)cc1Cl)C(=O)OCC=C(Cl)Cl (stereo not drawn) [Compound 283]	50	85		100	100	100			100										
CCOC(=O)[C@@H](C)OC(=O)c1cc(-n2c(=O)n(C)c(=S)n(C)c2=O)c(F)cc1Cl [Compound 249]				100					100			35	80	30	55	65	100	50	70
